Laboratory results as given in ChEMBL document CHEMBL1201862, “PubChem BioAssay data set” (2004).
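The compound was tested at five concentrations on cells cultured in 96-well plates, with a 48-hour exposure period. GI50 = concentration required for 50% inhibition of growth.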 Active and inactive are the calls of the source. No stated cut-off is given here; in the data, active = GI50 up to about 1.1 µM and inactive = higher.

Legend:
Test in all cases: NCI tumour cell line growth inhibition, 48 h
A498 = system: A498
A549 = system: A549
ACHN = system: ACHN
BT-549 = system: BT-549
CAKI-1 = system: CAKI-1
CCRF-CEM = system: CCRF-CEM
COLO 205 = system: COLO 205
DU-145 = system: DU-145
EKVX = system: EKVX
HCC 2998 = system: HCC 2998
HCT-15 = system: HCT-15
HL-60 = system: HL-60
HOP-62 = system: HOP-62
HOP-92 = system: HOP-92
HT-29 = system: HT-29
Hs-578T = system: Hs-578T
IGROV-1 = system: IGROV-1
K562 = system: K562
KM12 = system: KM12
LOX IMVI = system: LOX IMVI
M14 = system: M14
MCF7 = system: MCF7
MDA-MB-231 = system: MDA-MB-231
MDA-MB-435 = system: MDA-MB-435
MOLT-4 = system: MOLT-4
Malme-3M = system: Malme-3M
NCI-H226 = system: NCI-H226
NCI-H23 = system: NCI-H23
NCI-H460 = system: NCI-H460
NCI-H522 = system: NCI-H522
NCI/ADR-RES = system: NCI/ADR-RES
OVCAR-3 = system: OVCAR-3
OVCAR-4 = system: OVCAR-4
OVCAR-5 = system: OVCAR-5
OVCAR-8 = system: OVCAR-8
PC-3 = system: PC-3
RXF 393 = system: RXF 393
SF-268 = system: SF-268
SF-295 = system: SF-295
SK-MEL-28 = system: SK-MEL-28
SK-MEL-2 = system: SK-MEL-2
SK-MEL-5 = system: SK-MEL-5
SK-OV-3 = system: SK-OV-3
SNB-19 = system: SNB-19
SW-620 = system: SW-620
T47D = system: T47D
TK-10 = system: TK-10
U-251 = system: U-251
UACC-257 = system: UACC-257
UACC-62 = system: UACC-62
UO-31 = system: UO-31
786-0 = system: 786-0
HCT-116 = system: HCT-116
MDA-N = system: MDA-N
RPMI-8226 = system: RPMI-8226
SF-539 = system: SF-539
SN12C = system: SN12C
SNB-75 = system: SNB-75

## COc1ccc(Cc2nc3cc(C(F)(F)F)ccc3n2CCCN(C)C)cc1
A498
  GI50: 17.3 µM (inactive)
A549
  GI50: 17.3 µM (inactive)
ACHN
  GI50: 27.2 µM (inactive)
BT-549
  GI50: 15.3 µM (inactive)
CAKI-1
  GI50: 18.2 µM (inactive)
CCRF-CEM
  GI50: 22 µM (inactive)
COLO 205
  GI50: 18 µM (inactive)
DU-145
  GI50: 19.2 µM (inactive)
EKVX
  GI50: 23.6 µM (inactive)
HCC 2998
  GI50: 3.93 µM (inactive)
HCT-15
  GI50: 20 µM
HL-60
  GI50: 11.8 µM (inactive)
HOP-62
  GI50: 26 µM (inactive)
HOP-92
  GI50: 26.5 µM (inactive)
HT-29
  GI50: 18.5 µM (inactive)
Hs-578T
  GI50: 17.5 µM (inactive)
IGROV-1
  GI50: 28 µM (inactive)
K562
  GI50: 14.4 µM (inactive)
KM12
  GI50: 16.7 µM (inactive)
LOX IMVI
  GI50: 19.8 µM (inactive)
M14
  GI50: 14.7 µM (inactive)
MCF7
  GI50: 17.9 µM (inactive)
MDA-MB-231
  GI50: 24 µM (inactive)
MDA-MB-435
  GI50: 16.1 µM (inactive)
MOLT-4
  GI50: 2.27 µM (inactive)
Malme-3M
  GI50: 13.7 µM (inactive)
NCI-H226
  GI50: 36.1 µM (inactive)
NCI-H23
  GI50: 15.7 µM (inactive)
NCI-H460
  GI50: 20.3 µM (inactive)
NCI-H522
  GI50: 14.8 µM (inactive)
NCI/ADR-RES
  GI50: 14.6 µM (inactive)
OVCAR-3
  GI50: 17.3 µM (inactive)
OVCAR-4
  GI50: 27.2 µM (inactive)
OVCAR-5
  GI50: 22.9 µM (inactive)
OVCAR-8
  GI50: 30.6 µM (inactive)
PC-3
  GI50: 22.9 µM (inactive)
RXF 393
  GI50: 14.7 µM (inactive)
SF-268
  GI50: 16.8 µM (inactive)
SF-295
  GI50: 19.7 µM (inactive)
SK-MEL-28
  GI50: 18 µM (inactive)
SK-MEL-2
  GI50: 19 µM (inactive)
SK-MEL-5
  GI50: 16.2 µM (inactive)
SK-OV-3
  GI50: 16.7 µM (inactive)
SNB-19
  GI50: 27.6 µM (inactive)
SW-620
  GI50: 20.2 µM (inactive)
T47D
  GI50: 15.7 µM (inactive)
TK-10
  GI50: 20.7 µM (inactive)
U-251
  GI50: 17.1 µM (inactive)
UACC-257
  GI50: 17.1 µM (inactive)
UACC-62
  GI50: 17.7 µM (inactive)
UO-31
  GI50: 0.246 µM (active)

## COC(=O)[C@]1(c2cc3ccccc3[nH]2)CC2CN(CC(=O)N(C)OC)C1CC2(OC)OC (some centres not stated)
786-0
  GI50: 22.2 µM (inactive)
A498
  GI50: 39.1 µM (inactive)
A549
  GI50: 47.1 µM (inactive)
ACHN
  GI50: 35.1 µM (inactive)
BT-549
  GI50: 23.3 µM (inactive)
CAKI-1
  GI50: 20.7 µM (inactive)
CCRF-CEM
  GI50: 7.23 µM (inactive)
COLO 205
  GI50: 83.6 µM (inactive)
DU-145
  GI50: 43.5 µM (inactive)
EKVX
  GI50: 56.6 µM (inactive)
HCC 2998
  GI50: > 100 µM (inactive)
HCT-116
  GI50: 26.9 µM (inactive)
HCT-15
  GI50: 28.2 µM
HL-60
  GI50: 19.4 µM (inactive)
HOP-62
  GI50: 69.3 µM (inactive)
HOP-92
  GI50: 87.5 µM (inactive)
HT-29
  GI50: 35.2 µM (inactive)
IGROV-1
  GI50: 48.3 µM (inactive)
K562
  GI50: 24.9 µM (inactive)
KM12
  GI50: 31.6 µM (inactive)
LOX IMVI
  GI50: 37.7 µM (inactive)
M14
  GI50: 35.9 µM (inactive)
MCF7
  GI50: 32.8 µM (inactive)
MDA-MB-231
  GI50: 31.9 µM (inactive)
MDA-MB-435
  GI50: 27.5 µM (inactive)
MDA-N
  GI50: 33.4 µM (inactive)
Malme-3M
  GI50: 24.3 µM (inactive)
NCI-H226
  GI50: 34.4 µM (inactive)
NCI-H23
  GI50: 36 µM (inactive)
NCI-H460
  GI50: 55.3 µM (inactive)
NCI-H522
  GI50: 15.9 µM (inactive)
NCI/ADR-RES
  GI50: 41.2 µM (inactive)
OVCAR-3
  GI50: 50.6 µM (inactive)
OVCAR-4
  GI50: 57.1 µM (inactive)
OVCAR-5
  GI50: 52.2 µM (inactive)
OVCAR-8
  GI50: 39.3 µM (inactive)
PC-3
  GI50: 24.2 µM (inactive)
RPMI-8226
  GI50: 14.7 µM (inactive)
RXF 393
  GI50: 33.5 µM (inactive)
SF-268
  GI50: 67.6 µM (inactive)
SF-295
  GI50: > 100 µM (inactive)
SF-539
  GI50: 44.4 µM (inactive)
SK-MEL-28
  GI50: > 100 µM (inactive)
SK-MEL-2
  GI50: 39 µM (inactive)
SK-MEL-5
  GI50: 40.6 µM (inactive)
SK-OV-3
  GI50: > 100 µM (inactive)
SN12C
  GI50: 41.2 µM (inactive)
SNB-19
  GI50: > 100 µM (inactive)
SNB-75
  GI50: 63.8 µM (inactive)
SW-620
  GI50: 36.4 µM (inactive)
T47D
  GI50: 22 µM (inactive)
TK-10
  GI50: > 100 µM (inactive)
U-251
  GI50: 16.1 µM (inactive)
UACC-257
  GI50: 71.3 µM (inactive)
UACC-62
  GI50: 67.8 µM (inactive)
UO-31
  GI50: 40.2 µM (inactive)
